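Tested at 5 concentrations; 48 h exposure; 96-well plates; endpoints linearly interpolated, else capped at highest concentration. The concentration for 50% growth inhibition is given as GI50.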 Activity calls are given as the source filed them. Rule as the data show it: active = GI50 up to about 1.1 µM and inactive = higher.
How the values were obtained:
Experiment in all cases: DTP human tumour cell line panel, 48 h
UACC-62 = system: UACC-62
HOP-92 = system: HOP-92
SNB-75 = system: SNB-75
SNB-19 = system: SNB-19
CCRF-CEM = system: CCRF-CEM
OVCAR-5 = system: OVCAR-5
PC-3 = system: PC-3
SF-295 = system: SF-295
OVCAR-4 = system: OVCAR-4
SF-268 = system: SF-268
M14 = system: M14
SW-620 = system: SW-620
SR = system: SR
LOX IMVI = system: LOX IMVI
U-251 = system: U-251
SF-539 = system: SF-539
UACC-257 = system: UACC-257
SK-MEL-2 = system: SK-MEL-2
NCI-H226 = system: NCI-H226
HCT-116 = system: HCT-116

SMILES | GI50 (UACC-62) | GI50 (HOP-92) | GI50 (SNB-75) | GI50 (SNB-19) | GI50 (CCRF-CEM) | GI50 (OVCAR-5) | GI50 (PC-3) | GI50 (SF-295) | GI50 (OVCAR-4) | GI50 (SF-268) | GI50 (M14) | GI50 (SW-620) | GI50 (SR) | GI50 (LOX IMVI) | GI50 (U-251) | GI50 (SF-539) | GI50 (UACC-257) | GI50 (SK-MEL-2) | GI50 (NCI-H226) | GI50 (HCT-116)
CCOC(=O)c1csc(NC(=O)CN2CCOCC2)n1 | > 100 µM (inactive) | > 100 µM (inactive) | > 100 µM (inactive) | > 100 µM (inactive) | > 100 µM (inactive) | > 100 µM (inactive) | > 100 µM (inactive) | > 100 µM (inactive) | > 100 µM (inactive) | > 100 µM (inactive) | > 100 µM (inactive) | > 100 µM (inactive) | > 100 µM (inactive) | > 100 µM (inactive) | > 100 µM (inactive) | > 100 µM (inactive) | > 100 µM (inactive) | > 100 µM (inactive) |  | 
COc1ccc(/N=C2/C(=N/c3ccc(OC)cc3)N(c3ccccc3)C(=S)N2N=C=C2Sc3ccccc3N2C)cc1 | > 100 µM (inactive) | 47.3 µM (inactive) |  | > 100 µM (inactive) |  | > 100 µM (inactive) | > 100 µM (inactive) | > 100 µM (inactive) |  | > 100 µM (inactive) | 57.4 µM (inactive) | > 100 µM (inactive) | > 100 µM (inactive) |  | 88.7 µM (inactive) | > 100 µM (inactive) | > 100 µM (inactive) | > 100 µM (inactive) | > 100 µM (inactive) | 88.1 µM (inactive)
CCOC(=O)/C(=C\c1cccc(C)c1)C(C)=O | 16.5 µM (inactive) | 6.7 µM (inactive) | 4.94 µM (inactive) | 17.7 µM (inactive) |  | 10.9 µM (inactive) | 10.5 µM (inactive) | 23.4 µM (inactive) | 19.2 µM (inactive) | 15.2 µM (inactive) | 17.4 µM (inactive) | 12.5 µM (inactive) | 3.44 µM (inactive) | 13.6 µM (inactive) | 13.1 µM (inactive) | 16.7 µM (inactive) | 14.3 µM (inactive) | 10.1 µM (inactive) | 24.9 µM (inactive) | 16.7 µM (inactive)
c1ccc2c(Cc3c[nH]c4ccccc34)c[nH]c2c1 [ARUNDINE] | > 100 µM (inactive) | 16 µM (inactive) | 17.4 µM (inactive) | 21.7 µM (inactive) | 12.8 µM (inactive) | 14.2 µM (inactive) | 18.2 µM (inactive) | 19.9 µM (inactive) | 17.8 µM (inactive) | 28.1 µM (inactive) | 16.6 µM (inactive) | 20.1 µM (inactive) | 12.4 µM (inactive) | 20.3 µM (inactive) | 17.7 µM (inactive) |  | 18.5 µM (inactive) | 22.8 µM (inactive) | 2.14 µM (inactive) | 17.1 µM (inactive)
O=c1[nH]c(=O)n(COCc2ccccc2)c2ccccc12 | 75 µM (inactive) | 77.6 µM (inactive) | 13.1 µM (inactive) | 23 µM (inactive) | 56.9 µM (inactive) | > 100 µM (inactive) | 39.7 µM (inactive) | > 100 µM (inactive) | 44.3 µM (inactive) |  | > 100 µM (inactive) | > 100 µM (inactive) | 37 µM (inactive) | 95.3 µM (inactive) | 52.1 µM (inactive) | 47.9 µM (inactive) | 53.7 µM (inactive) | > 100 µM (inactive) | 47.8 µM (inactive) | 46.3 µM (inactive)
CCCC(=O)NC1CCc2cc(OC)c(OC)c(OC)c2-c2ccc(OC)c(=O)cc21 (stereo unspecified) | 0.000303 µM (active) | 0.447 µM (active) | 1.82 µM (inactive) | 0.000519 µM (active) | 0.00028 µM (active) | 0.00312 µM (active) | 0.000731 µM (active) | 0.000512 µM (active) |  | 0.00157 µM (active) | 0.000817 µM (active) | 0.000481 µM (active) | 0.114 µM (active) | 0.00045 µM (active) | 0.000344 µM (active) | 0.000296 µM (active) |  | 0.01 µM (active) | 0.000771 µM (active) | 0.000361 µM (active)
CCCSc1ccc2[nH]c(N3C(=O)/C(=C/c4ccccc4)N=C3c3ccccc3)cc2c1 | 21.5 µM (inactive) | > 50 µM (inactive) | 40.6 µM (inactive) | 41.4 µM (inactive) | 18.4 µM (inactive) | > 50 µM (inactive) | 23.7 µM (inactive) |  | 30 µM (inactive) | 18.4 µM (inactive) | 16.6 µM (inactive) | 18.7 µM (inactive) | 10.5 µM (inactive) | 20.4 µM (inactive) |  | 18.1 µM (inactive) | 17 µM (inactive) | 0.391 µM (active) |  | 22.4 µM (inactive)

From ChEMBL document CHEMBL1201862, “PubChem BioAssay data set” (2004)
